From PubChem BioAssay AID2060343 (Molecular Pharmacology Branch, DTP, NCI, 2025)

Test system: 138582-337-R-J1-PDC spheroids with HUVEC/MSC, viability
Experiment: Anticancer human tumor 138582-337-R-J1-PDC patient-derived Merkel cell tumor cell line growth inhibition [IpAb]
Conditions: for IC50: curve of first compound; for viability, T/C: stronger effect = lower value
In short: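 Spheroids of 60% malignant cells, 25% HUVEC and 15% MSC were exposed to targeted agents combined with ipatasertib or abemaciclib. Doses started at or near clinical Cmax (10 microM when unknown) and fell in half-log steps.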

[1] = second compound 0.01 µM, first compound 0.00949 µM
[2] = second compound 0.01 µM, first compound 0.03 µM
[3] = second compound 0.01 µM, first compound 0.0949 µM
[4] = second compound 0.01 µM, first compound 0.3 µM
[5] = second compound 0.0316 µM, first compound 0.00949 µM
[6] = second compound 0.0316 µM, first compound 0.03 µM
[7] = second compound 0.0316 µM, first compound 0.0949 µM
[8] = second compound 0.0316 µM, first compound 0.3 µM
[9] = second compound 0.1 µM, first compound 0.00949 µM
[10] = second compound 0.1 µM, first compound 0.03 µM
[11] = second compound 0.1 µM, first compound 0.0949 µM
[12] = second compound 0.1 µM, first compound 0.3 µM
[13] = second compound 0.316 µM, first compound 0.00949 µM
[14] = second compound 0.316 µM, first compound 0.03 µM
[15] = second compound 0.316 µM, first compound 0.0949 µM
[16] = second compound 0.316 µM, first compound 0.3 µM
[17] = second compound 1 µM, first compound 0.00949 µM
[18] = second compound 1 µM, first compound 0.03 µM
[19] = second compound 1 µM, first compound 0.0949 µM
[20] = second compound 1 µM, first compound 0.3 µM
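Also: spheroids exposed to compounds for seven days.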
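For viability, T/C in this document: 100% = DMSO vehicle control viability.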

SMILES | IC50 (second compound 0.01 µM) | IC50 (second compound 0.0316 µM) | IC50 (second compound 0.1 µM) | IC50 (second compound 0.316 µM) | IC50 (second compound 1 µM) | viability, T/C [1] | viability, T/C [2] | viability, T/C [3] | viability, T/C [4] | viability, T/C [5] | viability, T/C [6] | viability, T/C [7] | viability, T/C [8] | viability, T/C [9] | viability, T/C [10] | viability, T/C [11] | viability, T/C [12] | viability, T/C [13] | viability, T/C [14] | viability, T/C [15] | also measured
CC(=O)c1c(C)c2cnc(Nc3ccc(N4CCNCC4)cn3)nc2n(C2CCCC2)c1=O + CCN1CCN(Cc2ccc(Nc3ncc(F)c(-c4cc(F)c5nc(C)n(C(C)C)c5c4)n3)nc2)CC1 | > 300 nM | > 300 nM | > 300 nM | > 300 nM | > 300 nM | 88.1% | 92.5% | 93.4% | 86.6% | 79.7% | 89% | 88.3% | 81.8% | 85.1% | 88.7% | 82% | 75% | 85.3% | 79.7% | 87.6% | viability, T/C (second compound 0.01 µM, first compound 0.000949 µM): 97.9%; viability, T/C (second compound 0.01 µM, first compound 0.003 µM): 91.1%; viability, T/C (second compound 0.0316 µM, first compound 0.000949 µM): 91.2%; viability, T/C (second compound 0.0316 µM, first compound 0.003 µM): 89.5%; viability, T/C (second compound 0.1 µM, first compound 0.000949 µM): 84.6%; viability, T/C (second compound 0.1 µM, first compound 0.003 µM): 91.5%; viability, T/C (second compound 0.316 µM, first compound 0.000949 µM): 93.6%; viability, T/C (second compound 0.316 µM, first compound 0.003 µM): 86.6%; viability, T/C [16]: 79.7%; viability, T/C (second compound 1 µM, first compound 0.000949 µM): 99.4%; viability, T/C (second compound 1 µM, first compound 0.003 µM): 102%; viability, T/C [17]: 93.3%; viability, T/C [18]: 88.6%; viability, T/C [19]: 92.6%; viability, T/C [20]: 84.7%
CC(C)(C)c1cnc(CSc2cnc(NC(=O)C3CCNCC3)s2)o1 + CCN1CCN(Cc2ccc(Nc3ncc(F)c(-c4cc(F)c5nc(C)n(C(C)C)c5c4)n3)nc2)CC1 | 145 nM | 124 nM | 120 nM | 99.5 nM | 67.7 nM | 107% | 109% | 79% | 0.85% | 96.7% | 103% | 64.9% | 0.68% | 91.6% | 91.3% | 62.4% | 0.43% | 92.9% | 96.5% | 52.1% | viability, T/C (second compound 0.01 µM, first compound 0.949 µM): 0.5%; viability, T/C (second compound 0.01 µM, first compound 3 µM): 0.66%; viability, T/C (second compound 0.0316 µM, first compound 0.949 µM): 0.35%; viability, T/C (second compound 0.0316 µM, first compound 3 µM): 0.65%; viability, T/C (second compound 0.1 µM, first compound 0.949 µM): 0.5%; viability, T/C (second compound 0.1 µM, first compound 3 µM): 0.5%; viability, T/C [16]: 0.57%; viability, T/C (second compound 0.316 µM, first compound 0.949 µM): 0.45%; viability, T/C (second compound 0.316 µM, first compound 3 µM): 0.7%; viability, T/C [17]: 88.7%; viability, T/C [18]: 94.7%; viability, T/C [19]: 32.7%; viability, T/C [20]: 0.63%; viability, T/C (second compound 1 µM, first compound 0.949 µM): 0.5%; viability, T/C (second compound 1 µM, first compound 3 µM): 0.78%
